Laboratory results taken from patent publication US9415087B2, “Compositions and methods for treating coronavirus infection” (LUDWIG-MAXIMILIANS-UNIVERSITAET MUENCHEN, priority 2014, dated 2016).
pEC50, pIC50: −log10 of the molar value. Entries after “also recorded” stand apart in the source; their conditions may differ. Like-named read-outs stand apart in the source and are kept apart here.

Tests used:
HCoV-NL63 = test: microbe, parasite or virus in culture; assay type: cell-based; settings: read-out: Inhibition of HCoV-NL63 in CaCo-2 EC50
NFAT-GFP = NFAT-GFP nuclear translocation assay; settings: 40 nM compound, ionomycin 2 μM; yes = non-immunosuppressive
lymphocyte proliferation = settings: Sadeg et al. 1993; cited from earlier work
HCoV-229E-LUC = test: microbe, parasite or virus in culture; assay type: cell-based; settings: for inhibition of 229E-LUC replication (in words): Huh-7.5 cells
human CypA = human CypA (Homo sapiens, UniProt P62937); assay type: biochemical; settings: protease-coupled PPIase assay; read-out: In vitro inhibition human CypA IC50
human CypA, sequence (P62937 whole entry): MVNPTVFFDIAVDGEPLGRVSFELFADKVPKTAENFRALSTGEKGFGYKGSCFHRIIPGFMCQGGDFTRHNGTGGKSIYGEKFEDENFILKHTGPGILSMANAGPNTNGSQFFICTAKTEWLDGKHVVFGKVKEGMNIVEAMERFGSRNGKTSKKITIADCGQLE

CnA = CnA (Homo sapiens, UniProt P62937+P63098+Q08209); assay type: biochemical; settings: for pIC50: read-out: In vitro inhibition CnA IC50
CnA, sequence (P62937 whole entry, other chains not shown): as the sequence (P62937 whole entry) above
CnA, sequence (P63098 2-170, other chains not shown): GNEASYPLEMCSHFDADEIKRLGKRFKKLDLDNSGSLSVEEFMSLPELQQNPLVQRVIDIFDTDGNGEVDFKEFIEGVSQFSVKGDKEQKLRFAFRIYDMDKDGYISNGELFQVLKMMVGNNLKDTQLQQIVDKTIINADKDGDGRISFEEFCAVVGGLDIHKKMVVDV

HCoV-NL63 N protein = test: Western blot of N protein expression in HCoV-NL63-infected CaCo2 cells; assay type: cell-based; settings: 48 hours, 0 to 20 μM
HCoV-229E N protein = assay type: cell-based; settings: 48 h
NFAT = NFAT reporter gene assay (luciferase) in Jurkat cells; assay type: cell-based; settings: luciferase-coupled NFAT reporter gene assay; for pIC50: read-out: In vitro inhibition NFAT reporter gene assay IC50
[1] = tested on: Mouse Hepatitis Virus (MHV-LUC); test: MHV-LUC replication in L929 cells, luciferase activity; settings: micromolar concentration, FIG. 12
SARS-CoV-Replicon RNA = assay type: cell-based; settings: BHK-21 cells, 20 hours, FIG. 11
[2] = tested on: Feline Coronavirus (FCoV-LUC); test: FCoV-LUC replication in Felis catus whole fetus (fcwf) cells, Renilla luciferase; assay type: cell-based; settings: micromolar concentration, FIG. 10
[3] = Human coronavirus NL63, Caco-2, 48 h
[4] = Human coronavirus 229E, Huh7.5, 18 h, read-out: EC50 HCoV-229E-LUC, 18 hrs p.I., Huh-7.5, MOI=0.1
[5] = Human coronavirus 229E, Huh7.5, 48 h, read-out: EC50 HCoV-229E-LUC, 48 hrs p.I., Huh-7.5, MOI=0.1

C/C=C/C[C@@H](C)[C@@H](O)[C@H]1C(=O)N[C@@H](C(C)C)C(=O)N(C)CC(=O)N(C)[C@@H](CC(C)C)C(=O)N[C@@H](C(C)C)C(=O)N(C)[C@@H](CC(C)C)C(=O)N[C@@H](C)C(=O)N[C@H](C)C(=O)N(C)[C@@H](CC(C)C)C(=O)N(C)[C@@H](CC(C)C)C(=O)N(C)[C@@H](C(C)C)C(=O)N1C [CsD]
pEC50 (HCoV-NL63): 5.60
NFAT-GFP translocation in HEK-293 cells (to the nucleus) (NFAT-GFP): remained in the cytoplasm and no
immunosuppressant activity in lymphocyte proliferation assays relative to CsA (lymphocyte proliferation): about 10 % of the CsA activity

C=CC[C@@H]1/C=C(\C)C[C@H](C)C[C@H](OC)[C@H]2O[C@@](O)(C(=O)C(=O)N3CCCC[C@H]3C(=O)O[C@H](/C(C)=C/[C@@H]3CC[C@@H](O)[C@H](OC)C3)[C@H](C)[C@@H](O)CC1=O)[C@H](C)C[C@@H]2OC [FK506]
pEC50 (HCoV-NL63; [3]): 5.18
pEC50 (HCoV-229E-LUC; [4]): 5.53
pEC50 (HCoV-229E-LUC; [5]): 6.07

CCC1NC(=O)C(C(O)C(C)CC=CCN(C)C)N(C)C(=O)C(C(C)C)N(C)C(=O)C(CC(C)C)N(C)C(=O)C(CC(C)C)N(C)C(=O)C(C)NC(=O)C(C)NC(=O)C(CC(C)C)N(C)C(=O)C(C(C)C)NC(=O)C(CC(C)C)N(C)C(=O)CN(C)C1=O (centres unmarked) [Compound 2]
pEC50 (HCoV-NL63): 5.10
NFAT-GFP translocation in HEK-293 cells (to the nucleus) (NFAT-GFP): yes

CCC1NC(=O)C(C(O)C(C)Cc2nc3ccc(C(=O)OC)cc3[nH]2)N(C)C(=O)C(C(C)C)N(C)C(=O)C(CC(C)C)N(C)C(=O)C(CC(C)C)N(C)C(=O)C(C)NC(=O)C(C)NC(=O)C(CC(C)C)N(C)C(=O)C(C(C)C)NC(=O)C(CC(C)C)N(C)C(=O)CN(C)C1=O (centres unmarked) [Compound 3]
pEC50 (HCoV-NL63): 5.96
pEC50 (HCoV-229E-LUC; 18 hrs p.I., Huh-7.5, MOI=0.1, read-out: EC50 HCoV-229E-LUC): 5.69
pEC50 (HCoV-229E-LUC; 48 hrs p.I., Huh-7.5, MOI=0.1, listed as Comp. 3, read-out: EC50 HCoV-229E-LUC): 6.04
pEC50 (HCoV-229E-LUC; 48 hrs p.I., Huh-7.5, MOI=0.1, read-out: EC50 HCoV-229E-LUC): 6.01
inhibition of 229E-LUC replication (in words) (HCoV-229E-LUC): low micromolar range
NFAT-GFP translocation in HEK-293 cells (to the nucleus) (NFAT-GFP): yes
pIC50 (human CypA): 7.92
pIC50 (CnA): 5.16
concentration at which HCoV-NL63 N-protein decreases (HCoV-NL63 N protein): 1.25 µM

C/C=C/C[C@@H](C)[C@@H](O)[C@H]1C(=O)N[C@@H](CC)C(=O)N(C)CC(=O)N(C)[C@@H](CC(C)C)C(=O)N[C@@H](C(C)C)C(=O)N(C)[C@@H](CC(C)C)C(=O)N[C@@H](C)C(=O)N[C@H](C)C(=O)N(C)[C@@H](CC(C)C)C(=O)N(C)[C@@H](CC(C)C)C(=O)N(C)[C@H](C(C)C)C(=O)N1C [CsH, Cyclosporin H]
inhibition of 229E-LUC replication (in words) (HCoV-229E-LUC): slight residual inhibitory activity; also recorded: do not inhibit
HCoV-229E N protein synthesis (in words) (HCoV-229E N protein; at 20 μM): allow significant N protein synthesis

CCC1NC(=O)C(C(O)C(C)Cc2nc3ccc(-c4nc5ccccc5s4)cc3[nH]2)N(C)C(=O)C(C(C)C)N(C)C(=O)C(CC(C)C)N(C)C(=O)C(CC(C)C)N(C)C(=O)C(C)NC(=O)C(C)NC(=O)C(CC(C)C)N(C)C(=O)C(C(C)C)NC(=O)C(CC(C)C)N(C)C(=O)CN(C)C1=O (centres unmarked) [Compound 5]
pEC50 (HCoV-NL63): 5.64
NFAT-GFP translocation in HEK-293 cells (to the nucleus) (NFAT-GFP): yes
pIC50 (human CypA): 7.78
pIC50 (CnA; binary PPIase/drug complexes): < 5.00
pIC50 (NFAT): 5.92

C/C=C/C[C@@H](C)[C@@H](O)[C@H]1C(=O)N[C@@H](CC)C(=O)N(C)CC(=O)N(C)[C@@H]([C@@H](C)CC)C(=O)N[C@@H](C(C)C)C(=O)N(C)[C@@H](CC(C)C)C(=O)N[C@@H](C)C(=O)N[C@H](C)C(=O)N(C)[C@@H](CC(C)C)C(=O)N(C)[C@@H](CC(C)C)C(=O)N(C)[C@@H](C(C)C)C(=O)N1C [NIM811]
pEC50 (HCoV-NL63; [3]): 6.10
inhibition of 229E-LUC replication (in words) (HCoV-229E-LUC): low micromolar range
pEC50 (HCoV-229E-LUC; [4]): 5.51
pEC50 (HCoV-229E-LUC; [5]): 5.92
inhibition of murine Coronavirus spread (in words) [1]: inhibits spread
NFAT-GFP translocation in HEK-293 cells (to the nucleus) (NFAT-GFP): yes
inhibition of SARS-CoV-RNA replicon propagation (in words) (SARS-CoV-Replicon RNA): inhibition
inhibition of feline Coronavirus spread (in words) [2]: inhibits spread
concentration at which HCoV-NL63 N-protein decreases (HCoV-NL63 N protein): 1.25 µM

C/C=C/C[C@@H](C)[C@@H](O)[C@H]1C(=O)N[C@@H](CC)C(=O)N(C)[C@H](C)C(=O)N(CC)[C@@H](C(C)C)C(=O)N[C@@H](C(C)C)C(=O)N(C)[C@@H](CC(C)C)C(=O)N[C@@H](C)C(=O)N[C@H](C)C(=O)N(C)[C@@H](CC(C)C)C(=O)N(C)[C@@H](CC(C)C)C(=O)N(C)[C@@H](C(C)C)C(=O)N1C [ALV, Alisporivir]
pEC50 (HCoV-NL63; [3]): 6.10
inhibition of 229E-LUC replication (in words) (HCoV-229E-LUC): low micromolar range
pEC50 (HCoV-229E-LUC; [4]): 5.56
pEC50 (HCoV-229E-LUC; [5]): 5.86
inhibition of murine Coronavirus spread (in words) [1]: inhibits spread
NFAT-GFP translocation in HEK-293 cells (to the nucleus) (NFAT-GFP): yes
inhibition of SARS-CoV-RNA replicon propagation (in words) (SARS-CoV-Replicon RNA): inhibition
inhibition of feline Coronavirus spread (in words) [2]: inhibits spread
concentration at which HCoV-229E N protein is not detectable anymore (HCoV-229E N protein; Western blot): 1.25 µM
concentration at which HCoV-NL63 N-protein decreases (HCoV-NL63 N protein): 1.25 µM

CCOP(=O)(CC=CCC(C)C(O)C1C(=O)NC(CC)C(=O)N(C)CC(=O)N(C)C(CC(C)C)C(=O)NC(C(C)C)C(=O)N(C)C(CC(C)C)C(=O)NC(C)C(=O)NC(C)C(=O)N(C)C(CC(C)C)C(=O)N(C)C(CC(C)C)C(=O)N(C)C(C(C)C)C(=O)N1C)OCC (mixture of isomers) [Compound 1]
pEC50 (HCoV-NL63): 5.80
NFAT-GFP translocation in HEK-293 cells (to the nucleus) (NFAT-GFP): yes
pIC50 (human CypA): 8.04
In vitro inhibition CnA IC50 (CnA; binary PPIase/drug complexes): could not be inhibited at all and no
In vitro inhibition NFAT reporter gene assay IC50 (NFAT): no

CCC1NC(=O)C(C(O)C(C)Cc2nc3ccc(C(=O)c4ccccc4)cc3[nH]2)N(C)C(=O)C(C(C)C)N(C)C(=O)C(CC(C)C)N(C)C(=O)C(CC(C)C)N(C)C(=O)C(C)NC(=O)C(C)NC(=O)C(CC(C)C)N(C)C(=O)C(C(C)C)NC(=O)C(CC(C)C)N(C)C(=O)CN(C)C1=O (centres unmarked) [Compound 4]
pEC50 (HCoV-NL63): 5.09
NFAT-GFP translocation in HEK-293 cells (to the nucleus) (NFAT-GFP): yes
pIC50 (human CypA): 7.85
pIC50 (CnA; binary PPIase/drug complexes): ~5.00
pIC50 (NFAT): 5.89
